Here are results for 13 molecules from patent publication US10780090B2, “Heteroaryl compounds useful as inhibitors of SUMO activating enzyme” (Millennium Pharmaceuticals, Inc., priority 2014, dated 2020).

Usually IC50 stands for the concentration needed to halve the response being measured.

A value given as a limit tells only on which side of the number the result lay.

The target in this assay is recombinant human SAE enzyme (Homo sapiens (Human), UniProt Q9UBT2). Nature of the assay: SAE HTRF enzyme assay. In kind it is biochemical. The settings on record: for Percent Inhibition: SAE inhibition at compound concentration 0.111 μM; for IC50: SAE inhibition, class symbols, legend in nM. The procedure, abridged:
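This HTRF format monitors Sumo-Flag–Ubc9-GST thioester formation catalysed by 0.11 nM human SAE with 0.5 μM ATP over 105 min at 24° C. Inhibition is expressed at a single concentration or as IC50.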
For orientation: In TR-FRET formats the signal depends on donor and acceptor labels being close together.

Chain of recombinant human SAE enzyme (Q9UBT2 whole entry): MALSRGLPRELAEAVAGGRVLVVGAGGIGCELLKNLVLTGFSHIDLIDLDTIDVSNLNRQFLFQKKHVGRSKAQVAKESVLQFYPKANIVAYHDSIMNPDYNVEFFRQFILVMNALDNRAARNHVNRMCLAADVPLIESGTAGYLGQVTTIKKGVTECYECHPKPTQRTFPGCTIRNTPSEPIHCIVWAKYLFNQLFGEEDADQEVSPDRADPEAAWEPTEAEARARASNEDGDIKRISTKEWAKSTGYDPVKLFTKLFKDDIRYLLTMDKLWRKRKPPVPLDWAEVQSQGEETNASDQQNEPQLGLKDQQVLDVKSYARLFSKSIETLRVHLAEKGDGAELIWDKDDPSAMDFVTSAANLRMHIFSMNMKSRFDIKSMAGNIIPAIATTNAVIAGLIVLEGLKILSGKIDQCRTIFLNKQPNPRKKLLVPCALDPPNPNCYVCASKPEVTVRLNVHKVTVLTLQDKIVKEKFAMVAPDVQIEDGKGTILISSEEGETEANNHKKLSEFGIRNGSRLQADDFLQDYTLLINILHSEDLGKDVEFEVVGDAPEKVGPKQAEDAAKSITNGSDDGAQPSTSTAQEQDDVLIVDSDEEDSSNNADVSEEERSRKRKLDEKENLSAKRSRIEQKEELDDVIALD
Chain of recombinant human SAE enzyme (Q9UBE0 whole entry partner): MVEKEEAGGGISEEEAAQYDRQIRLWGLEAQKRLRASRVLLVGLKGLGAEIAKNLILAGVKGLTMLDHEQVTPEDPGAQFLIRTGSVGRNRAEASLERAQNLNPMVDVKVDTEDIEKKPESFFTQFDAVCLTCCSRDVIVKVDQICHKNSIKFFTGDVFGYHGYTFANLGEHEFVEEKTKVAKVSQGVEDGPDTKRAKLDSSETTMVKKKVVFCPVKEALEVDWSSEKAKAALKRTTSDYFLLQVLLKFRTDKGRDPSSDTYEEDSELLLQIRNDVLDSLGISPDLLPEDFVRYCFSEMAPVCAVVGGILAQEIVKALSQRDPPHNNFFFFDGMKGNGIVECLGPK

`NS(=O)(=O)OC[C@H]1C[C@@H](Nc2ncncc2C(=O)c2cc([C@@H]3OCCc4ccc(F)cc43)c(Cl)s2)C[C@@H]1O` (single isomer, unassigned) [I-294b, [(1R,2S,4R)-4-{[5-({5-chloro-4-[(1R)-7-fluoro-3,4-dihydro-1H-isochromen-1-yl]-2-thienyl}carbonyl)pyrimidin-4-yl]amino}-2-hydroxycyclopentyl]methyl sulfamate or [(1R,2S,4R)-4-{[5-({5-chloro-4-[(1S)-7-fluoro-3,4-dihydro-1H-isochromen-1-yl]-2-thienyl}carbonyl)pyrimidin-4-yl]amino}-2-hydroxycyclopentyl]methyl sulfamate]: the “Percent Inhibition” value worked out at 98% and the IC50 was below 10 nM.
Regarding `Cc1sc(C(=O)c2cncnc2N[C@@H]2C[C@H](COS(N)(=O)=O)[C@@H](O)C2)cc1C1OCCc2ccc(C(F)(F)F)nc21` (single isomer, unassigned) [I-297a, [(1R,2S,4R)-2-hydroxy-4-{[5-({5-methyl-4-[(8S)-2-(trifluoromethyl)-5,8-dihydro-6H-pyrano[3,4-b]pyridin-8-yl]-2-thienyl}carbonyl)pyrimidin-4-yl]amino}cyclopentyl]methyl sulfamate or [(1R,2S,4R)-2-hydroxy-4-{[5-({5-methyl-4-[(8R)-2-(trifluoromethyl)-5,8-dihydro-6H-pyrano[3,4-b]pyridin-8-yl]-2-thienyl}carbonyl)pyrimidin-4-yl]amino}cyclopentyl]methyl sulfamate], the “Percent Inhibition” value was 31% and the IC50 was 100 to 1000 nM.
For `Cc1sc(C(=O)c2cncnc2N[C@@H]2C[C@H](COS(N)(=O)=O)[C@@H](O)C2)cc1C1OCCc2ccc(C(F)(F)F)nc21` (single isomer, unassigned) [I-297b, [(1R,2S,4R)-2-hydroxy-4-{[5-({5-methyl-4-[(8S)-2-(trifluoromethyl)-5,8-dihydro-6H-pyrano[3,4-b]pyridin-8-yl]-2-thienyl}carbonyl)pyrimidin-4-yl]amino}cyclopentyl]methyl sulfamate or [(1R,2S,4R)-2-hydroxy-4-{[5-({5-methyl-4-[(8R)-2-(trifluoromethyl)-5,8-dihydro-6H-pyrano[3,4-b]pyridin-8-yl]-2-thienyl}carbonyl)pyrimidin-4-yl]amino}cyclopentyl]methyl sulfamate], the “Percent Inhibition” value was found to be 99% and the IC50 is below 10 nM.
For `Cc1sc(C(=O)c2cncnc2N[C@@H]2C[C@H](COS(N)(=O)=O)[C@@H](O)C2)cc1C1OCCc2oc(Cl)cc21` (single isomer, unassigned) [I-298a, [(1R,2S,4R)-4-{[5-({4-[(4R)-2-chloro-6,7-dihydro-4H-furo[3,2-c]pyran-4-yl]-5-methyl-2-thienyl}carbonyl)pyrimidin-4-yl]amino}-2-hydroxycyclopentyl]methyl sulfamate or [(1R,2S,4R)-4-{[5-({4-[(4S)-2-chloro-6,7-dihydro-4H-furo[3,2-c]pyran-4-yl]-5-methyl-2-thienyl}carbonyl)pyrimidin-4-yl]amino}-2-hydroxycyclopentyl]methyl sulfamate], the “Percent Inhibition” value was determined as 34% and the IC50 is 100 to 1000 nM.
For `Cc1sc(C(=O)c2cncnc2N[C@@H]2C[C@H](COS(N)(=O)=O)[C@@H](O)C2)cc1C1OCCc2oc(Cl)cc21` (single isomer, unassigned) [I-298b, [(1R,2S,4R)-4-{[5-({4-[(4R)-2-chloro-6,7-dihydro-4H-furo[3,2-c]pyran-4-yl]-5-methyl-2-thienyl}carbonyl)pyrimidin-4-yl]amino}-2-hydroxycyclopentyl]methyl sulfamate or [(1R,2S,4R)-4-{[5-({4-[(4S)-2-chloro-6,7-dihydro-4H-furo[3,2-c]pyran-4-yl]-5-methyl-2-thienyl}carbonyl)pyrimidin-4-yl]amino}-2-hydroxycyclopentyl]methyl sulfamate], in that order: 98% and below 10 nM.
Consider `NS(=O)(=O)OC[C@H]1C[C@@H](Nc2ncncc2C(=O)c2cc([C@@H]3NCCc4ccc(Cl)cc43)c(Cl)o2)C[C@@H]1O` (single isomer, unassigned) [I-299a, {(1R,2S,4R)-4-[(5-{5-chloro-4-[(1R)-7-chloro-1,2,3,4-tetrahydroisoquinolin-1-yl]-2-furoyl}pyrimidin-4-yl)amino]-2-hydroxycyclopentyl}methyl sulfamate or {(1R,2S,4R)-4-[(5-{5-chloro-4-[(1S)-7-chloro-1,2,3,4-tetrahydroisoquinolin-1-yl]-2-furoyl}pyrimidin-4-yl)amino]-2-hydroxycyclopentyl}methyl sulfamate], for which the “Percent Inhibition” value was 101% and the IC50 was below 10 nM.
In the case of `NS(=O)(=O)OC[C@H]1C[C@@H](Nc2ncncc2C(=O)c2cc([C@@H]3NCCc4ccc(Cl)cc43)c(Cl)o2)C[C@@H]1O` (single isomer, unassigned) [I-299b, {(1R,2S,4R)-4-[(5-{5-chloro-4-[(1R)-7-chloro-1,2,3,4-tetrahydroisoquinolin-1-yl]-2-furoyl}pyrimidin-4-yl)amino]-2-hydroxycyclopentyl}methyl sulfamate or {(1R,2S,4R)-4-[(5-{5-chloro-4-[(1S)-7-chloro-1,2,3,4-tetrahydroisoquinolin-1-yl]-2-furoyl}pyrimidin-4-yl)amino]-2-hydroxycyclopentyl}methyl sulfamate], the “Percent Inhibition” value is 93% and the IC50 is below 10 nM.
Take `Cc1sc(C(=O)c2cncnc2N[C@@H]2C[C@H](COS(N)(=O)=O)[C@@H](O)C2)nc1C1OCCc2ccc(Cl)cc21` (single isomer, unassigned) [I-300a, [(1R,2S,4R)-4-{[5-({4-[(1R)-7-chloro-3,4-dihydro-1H-isochromen-1-yl]-5-methyl-1,3-thiazol-2-yl}carbonyl)pyrimidin-4-yl]amino}-2-hydroxycyclopentyl]methyl sulfamate or [(1R,2S,4R)-4-{[5-({4-[(1S)-7-chloro-3,4-dihydro-1H-isochromen-1-yl]-5-methyl-1,3-thiazol-2-yl}carbonyl)pyrimidin-4-yl]amino}-2-hydroxycyclopentyl]methyl sulfamate]: the “Percent Inhibition” value turned out to be 26% and the IC50 lay within 100 to 1000 nM.
Consider `Cc1sc(C(=O)c2cncnc2N[C@@H]2C[C@H](COS(N)(=O)=O)[C@@H](O)C2)nc1C1OCCc2ccc(Cl)cc21` (single isomer, unassigned) [I-300b, [(1R,2S,4R)-4-{[5-({4-[(1R)-7-chloro-3,4-dihydro-1H-isochromen-1-yl]-5-methyl-1,3-thiazol-2-yl}carbonyl)pyrimidin-4-yl]amino}-2-hydroxycyclopentyl]methyl sulfamate or [(1R,2S,4R)-4-{[5-({4-[(1S)-7-chloro-3,4-dihydro-1H-isochromen-1-yl]-5-methyl-1,3-thiazol-2-yl}carbonyl)pyrimidin-4-yl]amino}-2-hydroxycyclopentyl]methyl sulfamate], for which the “Percent Inhibition” value was found to be 101% and the IC50 was below 10 nM.
Regarding `NS(=O)(=O)OC[C@H]1C[C@@H](Nc2ncncc2C(=O)c2cc([C@@H]3OCCc4c(Cl)cccc43)cs2)C[C@@H]1O` (single isomer, unassigned) [I-301a, [(1R,2S,4R)-4-{[5-({4-[(1R)-5-chloro-3,4-dihydro-1H-isochromen-1-yl]-2-thienyl}carbonyl)pyrimidin-4-yl]amino}-2-hydroxycyclopentyl]methyl sulfamate or [(1R,2S,4R)-4-{[5-({4-[(1S)-5-chloro-3,4-dihydro-1H-isochromen-1-yl]-2-thienyl}carbonyl)pyrimidin-4-yl]amino}-2-hydroxycyclopentyl]methyl sulfamate], the “Percent Inhibition” value was found to be 40% and the IC50 was 100 to 1000 nM.
Consider `NS(=O)(=O)OC[C@H]1C[C@@H](Nc2ncncc2C(=O)c2cc([C@@H]3OCCc4c(Cl)cccc43)cs2)C[C@@H]1O` (single isomer, unassigned) [I-301b, [(1R,2S,4R)-4-{[5-({4-[(1R)-5-chloro-3,4-dihydro-1H-isochromen-1-yl]-2-thienyl}carbonyl)pyrimidin-4-yl]amino}-2-hydroxycyclopentyl]methyl sulfamate or [(1R,2S,4R)-4-{[5-({4-[(1S)-5-chloro-3,4-dihydro-1H-isochromen-1-yl]-2-thienyl}carbonyl)pyrimidin-4-yl]amino}-2-hydroxycyclopentyl]methyl sulfamate], for which the “Percent Inhibition” value is 100% and the IC50 was below 10 nM.
As to `Cc1nc2c(s1)[C@H](c1cc(C(=O)c3cncnc3N[C@@H]3C[C@H](COS(N)(=O)=O)[C@@H](O)C3)sc1C)OCC2` (single isomer, unassigned) [I-305a, [(1R,2S,4R)-2-hydroxy-4-{[5-({5-methyl-4-[(4S)-2-methyl-6,7-dihydro-4H-pyrano[4,3-d][1,3]thiazol-4-yl]-2-thienyl}carbonyl)pyrimidin-4-yl]amino}cyclopentyl]methyl sulfamate or [(1R,2S,4R)-2-hydroxy-4-{[5-({5-methyl-4-[(4R)-2-methyl-6,7-dihydro-4H-pyrano[4,3-d][1,3]thiazol-4-yl]-2-thienyl}carbonyl)pyrimidin-4-yl]amino}cyclopentyl]methyl sulfamate], the “Percent Inhibition” value amounted to 28% and the IC50 was in the range of 100 to 1000 nM.
Take `Cc1nc2c(s1)[C@H](c1cc(C(=O)c3cncnc3N[C@@H]3C[C@H](COS(N)(=O)=O)[C@@H](O)C3)sc1C)OCC2` (single isomer, unassigned) [I-305b, [(1R,2S,4R)-2-hydroxy-4-{[5-({5-methyl-4-[(4S)-2-methyl-6,7-dihydro-4H-pyrano[4,3-d][1,3]thiazol-4-yl]-2-thienyl}carbonyl)pyrimidin-4-yl]amino}cyclopentyl]methyl sulfamate or [(1R,2S,4R)-2-hydroxy-4-{[5-({5-methyl-4-[(4R)-2-methyl-6,7-dihydro-4H-pyrano[4,3-d][1,3]thiazol-4-yl]-2-thienyl}carbonyl)pyrimidin-4-yl]amino}cyclopentyl]methyl sulfamate]: the “Percent Inhibition” value was determined as 98% and the IC50 was below 10 nM.
